Source: PubChem BioAssay (NCI)
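1) Cells in 96-well plates. 2) Compound, 48 h, 5 concentrations. 3) Linear interpolation between surrounding doses. 4) Unreached endpoint = highest concentration. GI50: concentration for 50% inhibition of growth. TGI: total growth inhibition.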

How the values were obtained:
Experiment in all cases: inhibition of tumour cell growth, NCI panel, 48 h; in the data active = GI50 below about 0.43 µM; inactive = the rest
SK-MEL-5 melanoma = tested on: SK-MEL-5 melanoma
SK-MEL-2 melanoma = tested on: SK-MEL-2 melanoma
LOX IMVI melanoma = tested on: LOX IMVI melanoma
BT-549 breast = tested on: BT-549 breast
MALME-3M melanoma = tested on: MALME-3M melanoma
MDA-MB-231 breast = tested on: MDA-MB-231 breast
NCI-H23 lung = tested on: NCI-H23 lung
SF-539 CNS = tested on: SF-539 CNS
SN12C renal = tested on: SN12C renal
DU-145 prostate = tested on: DU-145 prostate
K-562 leukemia = tested on: K-562 leukemia
RPMI-8226 leukemia = tested on: RPMI-8226 leukemia
NCI/ADR-RES ovarian = tested on: NCI/ADR-RES ovarian
IGROV1 ovarian = tested on: IGROV1 ovarian
MDA-MB-435 = tested on: MDA-MB-435
786-0 renal = tested on: 786-0 renal
COLO 205 colon = tested on: COLO 205 colon
HOP-62 NSCLC = tested on: HOP-62 NSCLC
SNB-75 CNS = tested on: SNB-75 CNS
SNB-19 CNS = tested on: SNB-19 CNS
HT29 colon = tested on: HT29 colon
SK-MEL-28 melanoma = tested on: SK-MEL-28 melanoma
EKVX NSCLC = tested on: EKVX NSCLC
OVCAR-3 ovarian = tested on: OVCAR-3 ovarian
NCI-H460 lung = tested on: NCI-H460 lung
NCI-H226 lung = tested on: NCI-H226 lung
HCT-15 colon = tested on: HCT-15 colon
T-47D breast = tested on: T-47D breast
ACHN renal = tested on: ACHN renal
TK-10 renal = tested on: TK-10 renal
MOLT-4 leukemia = tested on: MOLT-4 leukemia
UACC-257 melanoma = tested on: UACC-257 melanoma
A498 renal = tested on: A498 renal
SW-620 colon = tested on: SW-620 colon
UO-31 renal = tested on: UO-31 renal
PC-3 prostate = tested on: PC-3 prostate
SF-295 CNS = tested on: SF-295 CNS
HCT-116 colon = tested on: HCT-116 colon
OVCAR-4 ovarian = tested on: OVCAR-4 ovarian
MCF7 breast = tested on: MCF7 breast
OVCAR-8 ovarian = tested on: OVCAR-8 ovarian
KM12 colon = tested on: KM12 colon
HOP-92 NSCLC = tested on: HOP-92 NSCLC
UACC-62 melanoma = tested on: UACC-62 melanoma
HS 578T breast = tested on: HS 578T breast
M14 melanoma = tested on: M14 melanoma
HL-60(TB) leukemia = tested on: HL-60(TB) leukemia
NCI-H522 lung = tested on: NCI-H522 lung
SK-OV-3 ovarian = tested on: SK-OV-3 ovarian
OVCAR-5 ovarian = tested on: OVCAR-5 ovarian
HCC-2998 colon = tested on: HCC-2998 colon
U251 CNS = tested on: U251 CNS
RXF 393 renal = tested on: RXF 393 renal
CAKI-1 renal = tested on: CAKI-1 renal
CCRF-CEM leukemia = tested on: CCRF-CEM leukemia
SF-268 CNS = tested on: SF-268 CNS
A549 NSCLC = tested on: A549 NSCLC
SR leukemia = tested on: SR leukemia

c1ccc2c(c1)Nc1ccncc1S2
36.7 µM: TGI (SK-MEL-2 melanoma)
57 µM: TGI (OVCAR-3 ovarian)
78.1 µM: TGI (RPMI-8226 leukemia)
inactive: GI50 (SK-MEL-5 melanoma) 25.8 µM | GI50 (SK-MEL-2 melanoma) 13.6 µM | GI50 (LOX IMVI melanoma) 23.8 µM | GI50 (BT-549 breast) 29.6 µM | GI50 (MALME-3M melanoma) 28.2 µM | GI50 (MDA-MB-231 breast) 26.9 µM | GI50 (NCI-H23 lung) 20.7 µM | GI50 (SF-539 CNS) 19.7 µM | GI50 (SN12C renal) 27.8 µM | GI50 (DU-145 prostate) 32.3 µM | GI50 (K-562 leukemia) 29.4 µM | GI50 (RPMI-8226 leukemia) 17 µM | GI50 (NCI/ADR-RES ovarian) 21.4 µM | GI50 (IGROV1 ovarian) 22.8 µM | GI50 (MDA-MB-435) 23.2 µM | GI50 (786-0 renal) 28.8 µM | GI50 (COLO 205 colon) 11.5 µM | GI50 (HOP-62 NSCLC) 19.5 µM | GI50 (SNB-75 CNS) 18.1 µM | GI50 (SNB-19 CNS) 25.7 µM | GI50 (HT29 colon) 18.4 µM | GI50 (SK-MEL-28 melanoma) 31.5 µM | GI50 (EKVX NSCLC) 12.1 µM | GI50 (OVCAR-3 ovarian) 18.6 µM | GI50 (NCI-H460 lung) 18.2 µM | GI50 (NCI-H226 lung) 17.1 µM | GI50 (HCT-15 colon) 28 µM | GI50 (T-47D breast) 22.4 µM | GI50 (ACHN renal) 17.9 µM | GI50 (TK-10 renal) 22.7 µM | GI50 (MOLT-4 leukemia) 31.1 µM | GI50 (UACC-257 melanoma) 31.1 µM | GI50 (A498 renal) 5.13 µM | GI50 (SW-620 colon) 21.2 µM | GI50 (UO-31 renal) 12.7 µM | GI50 (PC-3 prostate) 27 µM | GI50 (SF-295 CNS) 14.7 µM | GI50 (HCT-116 colon) 20.5 µM | GI50 (OVCAR-4 ovarian) 23.7 µM | GI50 (MCF7 breast) 28.7 µM | GI50 (OVCAR-8 ovarian) 21.6 µM | GI50 (KM12 colon) 14.2 µM | GI50 (HOP-92 NSCLC) 8.07 µM | GI50 (UACC-62 melanoma) 16.5 µM | GI50 (HS 578T breast) 11.4 µM | GI50 (M14 melanoma) 32.4 µM | GI50 (HL-60(TB) leukemia) 19.4 µM | GI50 (NCI-H522 lung) 11.8 µM | GI50 (SK-OV-3 ovarian) 37 µM | GI50 (OVCAR-5 ovarian) 19 µM | GI50 (HCC-2998 colon) 27.9 µM | GI50 (U251 CNS) 27.2 µM | GI50 (RXF 393 renal) 11.9 µM | GI50 (CAKI-1 renal) 11.4 µM | GI50 (CCRF-CEM leukemia) 28.2 µM | GI50 (SF-268 CNS) 24.5 µM | GI50 (A549 NSCLC) 26.3 µM | GI50 (SR leukemia) 13.4 µM
42.5 µM: TGI (KM12 colon)
71.6 µM: TGI (HOP-92 NSCLC)
83.4 µM: TGI (TK-10 renal)
65.7 µM: TGI (NCI-H522 lung)
50.3 µM: TGI (SR leukemia)
32 µM: TGI (RXF 393 renal)
48.4 µM: TGI (HS 578T breast)
24.4 µM: TGI (A498 renal)
96.3 µM: TGI (T-47D breast)
67.1 µM: TGI (SF-539 CNS)
68.8 µM: TGI (SF-295 CNS)
75.4 µM: TGI (HL-60(TB) leukemia)
92.6 µM: TGI (SW-620 colon)
49.7 µM: TGI (NCI-H460 lung)
89.8 µM: TGI (MALME-3M melanoma)
81.5 µM: TGI (EKVX NSCLC)
37.1 µM: TGI (COLO 205 colon)
> 100 µM: TGI (SK-MEL-5 melanoma) | TGI (LOX IMVI melanoma) | TGI (BT-549 breast) | TGI (MDA-MB-231 breast) | TGI (NCI-H23 lung) | TGI (SN12C renal) | TGI (DU-145 prostate) | TGI (K-562 leukemia) | TGI (NCI/ADR-RES ovarian) | TGI (MDA-MB-435) | TGI (786-0 renal) | TGI (HOP-62 NSCLC) | TGI (SNB-19 CNS) | TGI (HT29 colon) | TGI (SK-MEL-28 melanoma) | TGI (NCI-H226 lung) | TGI (HCT-15 colon) | TGI (ACHN renal) | TGI (MOLT-4 leukemia) | TGI (UACC-257 melanoma) | TGI (PC-3 prostate) | TGI (HCT-116 colon) | TGI (OVCAR-4 ovarian) | TGI (MCF7 breast) | TGI (OVCAR-8 ovarian) | TGI (M14 melanoma) | TGI (SK-OV-3 ovarian) | TGI (OVCAR-5 ovarian) | TGI (HCC-2998 colon) | TGI (U251 CNS) | TGI (CCRF-CEM leukemia) | TGI (SF-268 CNS) | TGI (A549 NSCLC)
74 µM: TGI (UO-31 renal)
56.6 µM: TGI (SNB-75 CNS)
99.6 µM: TGI (IGROV1 ovarian)
56 µM: TGI (CAKI-1 renal)
56.9 µM: TGI (UACC-62 melanoma)
